Here are results for two compounds from the NIST ThermoML archive (doi:10.1021/acs.jced.5b00116).

This data set is described as follows: activity coefficient (dimensionless); of the first substance listed, at infinite dilution; wn = mass fraction of the nth substance listed. Particulars: 101 kPa, Liquid, Chromatography, w1 = 0.

Molecules are shown by their SMILES. ± gives the expanded uncertainty stated by the source.

For the compound `O` [water] + OCC(O)CO, the activity coefficient runs as follows: (313.15 K) 0.73 ± 0.08; (333.15 K) 0.75 ± 0.08; (353.15 K) 0.78 ± 0.08; (373.15 K) 0.79 ± 0.08; (393.15 K) 0.8 ± 0.08.

With `CCO` [ethanol] + OCC(O)CO, the activity coefficient reads like this: (313.15 K) 4.76 ± 0.5; (333.15 K) 3.98 ± 0.42; (353.15 K) 3.73 ± 0.39; (373.15 K) 3.52 ± 0.37; (393.15 K) 3.25 ± 0.34.
